Earlier results as cited in patent US7799540B2, “Method of producing lycopene through the fermentation of selected strains of Blackeslea trispora, formulations and uses of the lycopene thus obtained” (Vitatene, S.A., priority 2001, dated 2010).

Conditions: rats; Matos H.R. et al. (2001)

For `CC(C)=CCC/C(C)=C/C=C/C(C)=C/C=C/C(C)=C/C=C/C=C(C)/C=C/C=C(C)/C=C/C=C(\C)CCC=C(C)C` [lycopene, Lycopene], the “effect on harmful effect of ferric nitriloacetate on DNA” value is given as “inhibits the harmful effect of ferric nitriloacetate on DNA” and the “effect on necrosis of the liver” value is given as “prevents necrosis of the liver”.
